Experimental findings from patent EP4692090A1 (Shanghai Fosun Pharmaceutical (Group) Co., Ltd., priority 2023, dated 2024) are described below.

The subject of one assay is LoVo cells. The assay can be described thus: LoVo cell proliferation assay (CellTiter-Glo). The conditions noted are these: maximum concentration 10 µM, 9 concentrations. The class given is cell-based. As for the experimental part: Test Example 2: LoVo cell proliferation assay
LoVo (ATCC, #CRL-229) cells in logarithmic growth phase were digested, counted, and plated into 96-well cell culture plates at 2,000 cells per well. The plates containing cells were incubated overnight at 37°C in a 5% CO2 incubator, and then test compounds with 3-fold gradient dilutions (maximum concentration: 10 µM, 9 concentrations) were added. DMSO was used as a blank control. After the LoVo cells containing the compounds or DMSO were incubated for an additional 5 days, an equal volume of CellTiter-Glo reagent (Promega, #7573) was added. After incubation at room temperature for 30 minutes, chemiluminescence was read using an Envision 2105 (PerkinElmer). The cell proliferation inhibition rate (%) for wells treated with each concentration of the compounds was calculated using the following formula. Then, with compound concentration as the horizontal axis and cell proliferation inhibition rate (%) as the vertical axis, GraphPad software was used to plot the data and determine the IC50 values of the test compounds. The results are shown in Table 2, wherein the IC50 ranges are defined as follows: A: ≤ 100 nM; 1000 nM ≥ B > 100 nM; C > 1000 nM.
Cell proliferation inhibition (%) = (1 - luminescence value of compound-treated group / average luminescence value of DMSO blank control group) × 100. Table 2. Inhibitory effect of compounds on LoVo growth
(In general: ATP-based viability assays read luminescence as a measure of living cells.)

In a further assay the target is T1, ATR kinase (Homo sapiens, UniProt Q13535).
T1 construct: purchased Eurofins 14-953
The assay can be described thus: Inhibitory effect on ATR kinase activity (Caliper mobility shift, FAM-labeled RAD17 peptide substrate). The format is biochemical. As for the experimental part: Test Example 1: Inhibitory effect of the compounds of the present disclosure on ATR kinase activity
Test compounds to be tested were serially diluted with DMSO (maximum concentration 1 µM, 10 concentrations with 3-fold serial dilution) and added to the wells of a 384-well reaction plate (Corning, #4512). 1 nM ATR kinase (Eurofins, #14-953), 5 mM substrate (FAM-labeled RAD17 peptide, FAM-ASELPASQPQPFSAKKK), 5 mM ATP and the compounds with corresponding concentrations reacted in a kinase reaction solution (50 mM HEPES, pH 7.5; 0.0015% Brij-35; 10 mM MnCl2, total volume of 20 µL) at 28°C for 3 hours. The reaction was terminated by adding 30 µL of stop solution (100 mM HEPES, pH 7.5; 0.015% Brij-35; 0.2% Coating Reagent #3, PerkinElmer; 50 mM EDTA). The reaction plate was placed on a Caliper instrument (PerkinElmer) for testing. The relative inhibitory activity of each compound concentration group was calculated using the following formula: % Inhibition = (Conversion rate of the blank control group without compound added - Conversion rate of the test compound group) / (Conversion rate of the blank control group - […]). The IC50 values were calculated using GraphPad analysis and fitted. […] Table 1. Inhibitory effect (IC50) of compounds on ATR kinase activity.

Where [1] appears, read: LoVo cells, 2,000 cells per well, 5 days incubation, CellTiter-Glo, read-out: LoVo IC50.
Setting [2] is: 1 nM ATR kinase (Eurofins), 28°C for 3 hours, maximum concentration 1 µM, 10 concentrations, read-out: ATR kinase IC50.
The mark [3] stands for this setting: Homo sapiens, LoVo, 120 h, LoVo cells, 2,000 cells per well, 5 days incubation, CellTiter-Glo, read-out: LoVo IC50.
Where [4] appears, read: Homo sapiens, LoVo, 120 h, read-out: LoVo IC50 (nM), LoVo cells, 2,000 cells per well, 5 days incubation, CellTiter-Glo.
The mark [5] stands for this setting: read-out: ATR kinase IC50, 1 nM ATR kinase (Eurofins), 28°C for 3 hours, maximum concentration 1 µM, 10 concentrations.
Where [6] appears, read: read-out: LoVo IC50, LoVo cells, 2,000 cells per well, 5 days incubation, CellTiter-Glo.

Read-outs that look alike come from different tables or passages of the source.

T1 sequence (Q13535 whole entry): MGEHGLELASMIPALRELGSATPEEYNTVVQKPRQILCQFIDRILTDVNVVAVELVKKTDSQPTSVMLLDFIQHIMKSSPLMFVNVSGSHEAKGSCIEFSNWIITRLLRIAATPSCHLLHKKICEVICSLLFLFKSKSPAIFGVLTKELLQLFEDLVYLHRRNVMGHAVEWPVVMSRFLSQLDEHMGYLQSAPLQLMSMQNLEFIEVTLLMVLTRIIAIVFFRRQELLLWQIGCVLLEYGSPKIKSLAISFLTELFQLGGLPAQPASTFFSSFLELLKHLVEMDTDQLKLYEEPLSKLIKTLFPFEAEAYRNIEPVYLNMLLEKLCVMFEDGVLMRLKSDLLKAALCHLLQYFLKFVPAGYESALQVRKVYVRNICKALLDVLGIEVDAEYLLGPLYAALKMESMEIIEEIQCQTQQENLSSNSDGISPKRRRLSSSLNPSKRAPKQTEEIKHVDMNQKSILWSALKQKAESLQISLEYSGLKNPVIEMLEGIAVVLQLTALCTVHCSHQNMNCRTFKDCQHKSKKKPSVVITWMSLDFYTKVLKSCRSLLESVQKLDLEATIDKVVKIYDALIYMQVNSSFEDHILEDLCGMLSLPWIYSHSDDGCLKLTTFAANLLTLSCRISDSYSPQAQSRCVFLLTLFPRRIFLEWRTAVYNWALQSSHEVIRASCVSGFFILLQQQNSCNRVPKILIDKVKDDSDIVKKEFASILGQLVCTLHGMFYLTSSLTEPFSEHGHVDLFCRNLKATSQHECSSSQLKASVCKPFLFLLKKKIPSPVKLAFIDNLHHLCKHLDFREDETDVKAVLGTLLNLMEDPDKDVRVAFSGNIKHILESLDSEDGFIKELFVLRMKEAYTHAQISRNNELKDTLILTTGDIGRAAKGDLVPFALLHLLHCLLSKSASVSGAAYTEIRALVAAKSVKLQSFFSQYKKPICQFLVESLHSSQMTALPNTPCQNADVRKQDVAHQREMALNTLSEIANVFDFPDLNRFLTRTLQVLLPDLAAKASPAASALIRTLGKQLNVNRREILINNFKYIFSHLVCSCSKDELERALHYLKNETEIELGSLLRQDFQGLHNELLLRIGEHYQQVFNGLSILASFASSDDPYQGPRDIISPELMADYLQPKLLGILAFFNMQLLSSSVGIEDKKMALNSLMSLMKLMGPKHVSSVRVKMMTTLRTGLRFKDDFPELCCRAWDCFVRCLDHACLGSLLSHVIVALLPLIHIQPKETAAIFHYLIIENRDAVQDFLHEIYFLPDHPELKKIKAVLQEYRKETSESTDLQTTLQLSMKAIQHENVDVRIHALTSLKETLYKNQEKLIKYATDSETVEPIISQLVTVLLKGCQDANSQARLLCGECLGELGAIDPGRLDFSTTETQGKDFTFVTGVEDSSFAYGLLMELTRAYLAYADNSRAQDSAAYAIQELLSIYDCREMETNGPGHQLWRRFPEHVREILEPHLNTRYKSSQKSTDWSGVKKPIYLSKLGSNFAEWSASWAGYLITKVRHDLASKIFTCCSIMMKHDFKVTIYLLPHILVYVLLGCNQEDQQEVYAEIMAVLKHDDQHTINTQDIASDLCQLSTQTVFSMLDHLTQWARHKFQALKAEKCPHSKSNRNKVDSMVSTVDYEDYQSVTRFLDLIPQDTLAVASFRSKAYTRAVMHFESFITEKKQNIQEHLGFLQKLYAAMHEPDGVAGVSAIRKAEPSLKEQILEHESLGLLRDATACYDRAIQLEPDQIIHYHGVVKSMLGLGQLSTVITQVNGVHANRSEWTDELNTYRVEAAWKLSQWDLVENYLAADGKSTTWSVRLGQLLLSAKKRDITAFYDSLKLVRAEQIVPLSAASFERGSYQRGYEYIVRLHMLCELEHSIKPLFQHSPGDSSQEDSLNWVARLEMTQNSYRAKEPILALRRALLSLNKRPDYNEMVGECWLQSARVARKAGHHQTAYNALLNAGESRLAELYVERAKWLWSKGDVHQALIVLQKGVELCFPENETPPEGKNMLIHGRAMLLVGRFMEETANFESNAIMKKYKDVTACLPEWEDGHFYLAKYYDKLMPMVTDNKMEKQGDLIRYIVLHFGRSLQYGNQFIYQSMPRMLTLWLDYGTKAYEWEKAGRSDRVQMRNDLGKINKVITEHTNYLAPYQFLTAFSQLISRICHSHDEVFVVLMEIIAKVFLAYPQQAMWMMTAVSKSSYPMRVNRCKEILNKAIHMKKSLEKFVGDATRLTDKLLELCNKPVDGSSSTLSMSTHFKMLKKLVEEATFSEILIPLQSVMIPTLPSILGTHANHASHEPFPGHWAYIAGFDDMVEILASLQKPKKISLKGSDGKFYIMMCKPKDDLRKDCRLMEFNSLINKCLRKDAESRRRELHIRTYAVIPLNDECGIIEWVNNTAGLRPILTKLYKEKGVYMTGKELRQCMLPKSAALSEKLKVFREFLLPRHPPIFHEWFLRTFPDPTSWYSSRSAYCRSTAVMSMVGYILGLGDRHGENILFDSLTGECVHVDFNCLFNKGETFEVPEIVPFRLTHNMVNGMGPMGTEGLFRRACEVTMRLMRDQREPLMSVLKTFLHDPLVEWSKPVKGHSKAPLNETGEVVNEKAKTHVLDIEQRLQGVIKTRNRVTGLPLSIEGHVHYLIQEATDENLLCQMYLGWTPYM
T1 sequence (Q8WXE1 whole entry partner): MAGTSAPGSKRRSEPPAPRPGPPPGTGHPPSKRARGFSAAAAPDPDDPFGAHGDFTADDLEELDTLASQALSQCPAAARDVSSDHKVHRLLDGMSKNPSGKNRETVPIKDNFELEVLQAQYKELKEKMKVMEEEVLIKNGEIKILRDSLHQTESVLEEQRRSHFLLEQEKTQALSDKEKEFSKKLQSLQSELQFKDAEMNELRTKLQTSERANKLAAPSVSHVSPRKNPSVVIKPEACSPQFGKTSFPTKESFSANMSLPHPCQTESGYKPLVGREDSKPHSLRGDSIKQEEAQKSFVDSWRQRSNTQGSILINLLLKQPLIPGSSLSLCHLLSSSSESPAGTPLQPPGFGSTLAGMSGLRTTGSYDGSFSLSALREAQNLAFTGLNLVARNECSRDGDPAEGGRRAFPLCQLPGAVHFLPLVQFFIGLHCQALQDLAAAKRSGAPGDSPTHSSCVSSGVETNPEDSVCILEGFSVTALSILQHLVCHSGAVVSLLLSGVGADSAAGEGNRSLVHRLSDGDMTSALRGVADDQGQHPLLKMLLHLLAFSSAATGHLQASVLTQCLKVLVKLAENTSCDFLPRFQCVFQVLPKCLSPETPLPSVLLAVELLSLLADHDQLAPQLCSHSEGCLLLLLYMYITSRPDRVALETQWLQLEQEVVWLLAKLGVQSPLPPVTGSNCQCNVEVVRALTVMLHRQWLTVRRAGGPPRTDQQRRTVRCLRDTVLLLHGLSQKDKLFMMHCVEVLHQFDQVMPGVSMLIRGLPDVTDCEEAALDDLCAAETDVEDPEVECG

Regarding `C[C@@H]1COCCN1c1cc2c3c(nn(-c4cc[nH]n4)c3n1)CCN(C1CC(C(F)(F)F)C1)C2` (single isomer, unassigned) [Compound 13A], the values for the IC50 with LoVo cells (setting [1]) and on ATR kinase (setting [2]) were 100 to 1000 nM and 10 to 100 nM, respectively.
The matching figures for `C[C@@H]1COCCN1c1cc2c3c(nn(-c4cc[nH]n4)c3n1)CCN(C1CC(C(F)(F)F)C1)C2` (single isomer, unassigned) [Compound 13B]: > 1000 nM and 100 to 1000 nM.
On to `C[C@@H]1COCCN1c1cc2c3c(nn(-c4cc[nH]n4)c3n1)CCN(C(=O)C1CC3(C1)CC3(F)F)C2` (single isomer, unassigned) [Compound 20A], for which the figures for the IC50 in the assay with LoVo cells (setting [3]) and at ATR kinase (setting [2]) were > 1000 nM and 10 to 100 nM, respectively.
As for `C[C@@H]1COCCN1c1cc2c3c(nn(-c4cc[nH]n4)c3n1)CCN(C(=O)C1CC3(C1)CC3(F)F)C2` (single isomer, unassigned) [Compound 20B], the figures for the IC50 in the assay with LoVo cells (setting [1]) and on ATR kinase (setting [2]) were > 1000 nM and 10 to 100 nM, respectively.
In the case of `CC1c2cc(N3CCOC[C@H]3C)nc3c2c(nn3-c2cc[nH]n2)CCN1C1CC1` (single isomer, unassigned) [Compound 31A], the IC50 is < 100 nM in the assay with LoVo cells (setting [3]) and < 10 nM at ATR kinase (setting [2]).
In the case of `CC1c2cc(N3CCOC[C@H]3C)nc3c2c(nn3-c2cc[nH]n2)CCN1C1CC1` (single isomer, unassigned) [Compound 31B], the IC50 in the assay with LoVo cells (setting [1]) was < 100 nM; on ATR kinase (setting [2]) it was < 10 nM.
For `CC1c2cc(N3CCOC[C@H]3C)nc3c2c(nn3-c2cc[nH]n2)CCN1C1COC1` (single isomer, unassigned) [Compound 32A], the IC50 in the assay with LoVo cells (setting [3]) lay within 100 to 1000 nM; at ATR kinase (setting [2]) it was 10 to 100 nM.
Consider `CC1c2cc(N3CCOC[C@H]3C)nc3c2c(nn3-c2cc[nH]n2)CCN1C1COC1` (single isomer, unassigned) [Compound 32B], for which the IC50 in the assay with LoVo cells (setting [1]) was < 100 nM; on ATR kinase (setting [2]), 10 to 100 nM.
In the case of `CC1c2cc(N3CCOC[C@H]3C)nc3c2c(nn3-c2cc[nH]n2)CCN1C(=O)C1(C(F)(F)F)CC1` (single isomer, unassigned) [Compound 33A], the IC50 with LoVo cells (setting [4]) is < 100 nM; on ATR kinase (setting [5]), < 10 nM.
On to `CC1c2cc(N3CCOC[C@H]3C)nc3c2c(nn3-c2cc[nH]n2)CCN1C(=O)C1(C(F)(F)F)CC1` (single isomer, unassigned) [Compound 33B], for which the IC50 in the assay on LoVo cells (setting [6]) and on ATR kinase (setting [5]) was 100 to 1000 nM throughout.
With `CC1c2cc(N3CCOC[C@H]3C)nc3c2c(nn3-c2cc[nH]n2)CCN1C` (single isomer, unassigned) [Compound 35A], the IC50 in the assay with LoVo cells (setting [3]) was < 100 nM; on ATR kinase (setting [2]) it was < 10 nM.
Regarding `CC(C)N1CCc2nn(-c3cc[nH]n3)c3nc(N4CCOC[C@H]4C)cc(c23)C1C` (single isomer, unassigned) [Compound 36A], the values for the IC50 in the assay with LoVo cells (setting [3]) and at ATR kinase (setting [2]) were 100 to 1000 nM and < 10 nM, respectively.
Consider `CC(C)N1CCc2nn(-c3cc[nH]n3)c3nc(N4CCOC[C@H]4C)cc(c23)C1C` (single isomer, unassigned) [Compound 36B], for which the IC50 is < 100 nM with LoVo cells (setting [1]) and < 10 nM at ATR kinase (setting [2]).
Turning to `CC1c2cc(N3CCOC[C@H]3C)nc3c2c(nn3-c2cc[nH]n2)CCN1S(=O)(=O)C1CC1` (single isomer, unassigned) [Compound 37A], the values for the IC50 with LoVo cells (setting [3]) and at ATR kinase (setting [2]) were < 100 nM and 10 to 100 nM, respectively.
Take `CC1c2cc(N3CCOC[C@H]3C)nc3c2c(nn3-c2cc[nH]n2)CCN1S(=O)(=O)C1CC1` (single isomer, unassigned) [Compound 37B]: the values for the IC50 in the assay with LoVo cells (setting [1]) and on ATR kinase (setting [2]) were < 100 nM and < 10 nM, respectively.
Turning to `CC1c2cc(N3CCOC[C@H]3C)nc3c2c(nn3-c2cc[nH]n2)CCN1S(C)(=O)=O` (single isomer, unassigned) [Compound 39A], the IC50 in the assay with LoVo cells (setting [1]) is < 100 nM; at ATR kinase (setting [2]), < 10 nM.
As for `CC1c2cc(N3CCOC[C@H]3C)nc3c2c(nn3-c2cc[nH]n2)CCN1S(C)(=O)=O` (single isomer, unassigned) [Compound 39B], the values for the IC50 in the assay on LoVo cells (setting [1]) and on ATR kinase (setting [2]) were > 1000 nM and < 10 nM, respectively.
Regarding `CC1c2cc(N3CCOC[C@H]3C)nc3c2c(nn3-c2cc[nH]n2)CCN1C(=O)C1(C#N)CC1` (single isomer, unassigned) [Compound 40A], the IC50 in the assay with LoVo cells (setting [4]) is 100 to 1000 nM; at ATR kinase (setting [5]) it was < 10 nM.
As for `CC1c2cc(N3CCOC[C@H]3C)nc3c2c(nn3-c2cc[nH]n2)CCN1C(=O)C1(C#N)CC1` (single isomer, unassigned) [Compound 40B], the results for the IC50 with LoVo cells (setting [6]) and on ATR kinase (setting [5]) were 100 to 1000 nM and 10 to 100 nM, respectively.
Take `CCN1CCc2nn(-c3cc[nH]n3)c3nc(N4CCOC[C@H]4C)cc(c23)C1C` (single isomer, unassigned) [Compound 41A]: the values for the IC50 in the assay on LoVo cells (setting [3]) and on ATR kinase (setting [2]) were < 100 nM and < 10 nM, respectively.
Turning to `CCN1CCc2nn(-c3cc[nH]n3)c3nc(N4CCOC[C@H]4C)cc(c23)C1C` (single isomer, unassigned) [Compound 41B], the IC50 in the assay on LoVo cells (setting [1]) was < 100 nM; on ATR kinase (setting [2]) it was < 10 nM.
For the molecule `CC1c2cc(N3CCOC[C@H]3C)nc3c2c(nn3-c2cc[nH]n2)CCN1C1(C#N)CC1` (single isomer, unassigned) [Compound 42A], the figures for the IC50 in the assay with LoVo cells (setting [3]) and on ATR kinase (setting [2]) were < 100 nM and < 10 nM, respectively.
As to `CC1c2cc(N3CCOC[C@H]3C)nc3c2c(nn3-c2cc[nH]n2)CCN1C1(C#N)CC1` (single isomer, unassigned) [Compound 42B], the IC50 in the assay with LoVo cells (setting [1]) was < 100 nM; at ATR kinase (setting [2]), 10 to 100 nM.
As for `CC1c2cc(N3CCOC[C@H]3C)nc3c2c(nn3-c2cc[nH]n2)CCN1CC1COC1` (single isomer, unassigned) [Compound 44A], the results for the IC50 in the assay with LoVo cells (setting [3]) and at ATR kinase (setting [2]) were 100 to 1000 nM and 10 to 100 nM, respectively.
On to `CC1c2cc(N3CCOC[C@H]3C)nc3c2c(nn3-c2cc[nH]n2)CCN1S(C)(=N)=O` (single isomer, unassigned) [Compound 46C], for which the IC50 in the assay on LoVo cells (setting [1]) was < 100 nM; on ATR kinase (setting [2]) it was < 10 nM.
`[2H]C([2H])([2H])N1CCc2nn(-c3cc[nH]n3)c3nc(N4CCOC[C@H]4C)cc(c23)C1C` (single isomer, unassigned) [Compound 47A]: the IC50 was < 100 nM in the assay with LoVo cells (setting [3]) and < 10 nM on ATR kinase (setting [2]).
Regarding `[2H]C([2H])([2H])N1CCc2nn(-c3cc[nH]n3)c3nc(N4CCOC[C@H]4C)cc(c23)C1C` (single isomer, unassigned) [Compound 47B], the IC50 was < 100 nM in the assay with LoVo cells (setting [1]) and < 10 nM on ATR kinase (setting [2]).
For the molecule `C[C@@H]1COCCN1c1cc2c3c(n1)c(-c1cc[nH]n1)nn3CCC(=O)N2C1CC2(C1)CC(C)(O)C2` (stereo partly drawn) [Compound 94, (R)-6-(6-hydroxy-6-methylspiro[3.3]hept-2-yl)-4-(3-methylmorpholinyl)-2-(1H-pyrazol-3-yl)-8,9-dihydro-1,3,6,9a-tetraazabenzo[cd]azulene-7(6H)-one], at ATR kinase (setting [5]), the IC50 was in the range of 10 to 100 nM.
In the case of `CC(C(N)=O)N1C(=O)CCn2nc(-c3cc[nH]n3)c3nc(N4CCOC[C@H]4C)cc1c32` (stereo partly drawn) [Compound 104, 2-(4-((R)-3-methylmorpholino)-7-oxo-2-(1H-pyrazol-3-yl)-8,9-dihydro-1,3,6,9a-tetraazabenzo[cd]azulene-6(7H)-yl)propanamide], on ATR kinase (setting [2]), the IC50 is 10 to 100 nM.
As for `C[C@@H]1COCCN1c1cc2c3c(nn(-c4cc[nH]n4)c3n1)CCN(C)C2=O` [Compound 137, (R)-7-methyl-4-(3-methylmorpholinyl)-2-(1H-pyrazol-3-yl)-2,7,8,9-tetrahydro-6H-1,2,3,7-tetraazabenzo[cd]azulene-6-one], the IC50 at ATR kinase (setting [5]) was in the range of 10 to 100 nM.
